# Measurements reported in patent US5486532A, “Benzospiroalkenes” (Adir et Compagnie, priority 1993, dated 1996).
# Where a name gives a salt, the structure may show the parent alone. Read-outs that look alike come from different tables or passages of the source.
# Columns and labels:
# [1] = system: loss of the righting reflex in rats; assay: Test of loss of the righting reflex in rats, induction (agonistic effect); assay type: in vivo, male Wistar rats; settings: for ED50: Rattus norvegicus, sc, 0.5 h, read-out: Induction of the loss of righting reflex ED50; for induction of a loss of the reorienting reflex (in words): rats
# Procedure: (§1) Animals and environment The animals used are male Wistar rats (IFFA CREDO). They weigh between 200 and 250 g at the time of the experiment. The rats live in an animal house, in cages, four to a cage, with free access to food and drinking water, for one week before being studied. 24 hours before the experiment, the rats are deprived of food. The rats are transferred into the laboratory a few hours before the experiment. The animal house and the laboratory are climatically controlled at a temperature of 21 1° C. and a hygrometry of 55 5%. The lighting cycle is 12 h/12 h with the light switched on from 7.0 a.m. to 7.0 p.m. The rats are only experimented on once.
# (§2) The compounds are injected subcutaneously into the rats which are placed in individual cages. 30 minutes after the injection the effect of these products on the fighting reflex is observed and a score is attributed. Immediately after, the rats receive an intraperitoneal injection of xylazine at a dose of 40 mg/kg. 30 minutes after the injection of xylazine (=60 minutes after the injection of the compounds to be tested), a new righting reflex score is attributed. In order to evaluate the righting reflex, the rats are placed gently on their backs and then released. A score of 0 is attributed to an immediate and complete righting, a score of 1 to a righting without recovery of a normal position, a score of 2 to a righting attempt but in which the rat remains stretched out on its back and a score of 3 to a complete loss of the reorienting reflex.
# (§3) In order to evaluate the effect of the compounds tested on the loss of the righting reflex, a score of 1 or more is considered as an agonistic effect. The percentage of animals which have a score of 1 or more is calculated per dose, as is the ED50 (=dose at which 50% of the animals show an agonistic effect).
# (§4) The products are dissolved in distilled water, or distilled water with a few drops of lactic acid in the case of solubilization difficulties. The pH of the solutions is then brought to 5 using sodium hydroxide solution. All the products are administered in a volume of 10 ml/kg.
# [2] = system: loss of righting reflex induced by xylazine in rats; assay: Antagonism of the loss of righting reflex induced by xylazine in rats; assay type: in vivo, male Wistar rats; settings: Rattus norvegicus, sc, 1 h, read-out: Antagonism of the loss of righting reflex induced by xylazine ED50
# Procedure: as §1, §2
# as §3, with “fighting reflex induced by xylazine,” for “righting reflex,”, “2” for “1”, “less” for “more”, “antagonistic” for “agonistic”, “effect). The ED50 are calculated according to Litchfield and Wilcoxon.” for “effect).”
# as §4
# [3] = system: synthetic activity of noradrenaline in rat hippocampus; assay: Effect of α2-adrenergic ligands on the synthetic activity of noradrenaline in rat hippocampus (L-DOPA accumulation); assay type: in vivo, male Wistar rats; settings: 60 minutes, n = 4
# Procedure: 200-220 g male Wistar rats Iffa Credo, Illskischen, France) are individually installed in cages with free access to food and drinking water. The laboratory temperature is 21 1° C. and the percent humidity is 60 5%. The day/night cycle is 12 hours (light switched on in the morning at 7.30).
# The effects of the molecules on the rate of regeneration of noradrenaline is determined 60 minutes after their administration via the subcutaneous route. […] The animals are then decapitated, their brain is removed and the hippocampus is dissected. The hippocampus is subsequently homogenized in 500 1 of 0.1M HClO4 containing 0.5% of Na2 S2 O5 and 0.5% of disodium EDTA and centrifuged at 15000 g for 15 minutes at 4° C. In order to measure the amounts of L-dihydroxyphenylalanine (L-DOPA), the precursor of noradrenaline, present, the supernatants are diluted 20 times in the chromatography mobile phase and 100 1 are analyzed by high performance liquid chromatography with electrochemical detection (Waters M460 detector, potential of the working electrode:850 mV). The column (Hypersil ODS 5 m, C18, 150 4.6 mm, Spectra Physics) is thermostatted at 25° C. […] The flow rate is 1 ml/min. The amounts of L-DOPA are determined relative to an external calibration and are compared with the amount of protein present in the hippocampi. The proteins are quantified according to the method of Smith et at. […] The average amount of L-DOPA analyzed in the animals treated by the solvent is considered as the control value (100%). The amounts analyzed in the animals treated by the molecules are then expressed as a percentage relative to this control value.
# Statistics The data obtained for the control animals and the treated animals are compared with a variance analysis (ANOVA), followed by a Dunnett test. The significance limit is set at p<0.05. The data are expressed as a mean standard deviation.
# Compounds The injection are made subcutaneously in a volume of 1.0 ml/kg. The substances are dissolved in sterile water with, if necessary, a few drops of lactic acid and then readjusted to a pH which is as close as possible to neutrality with sodium hydroxide. […] The doses are expressed relative to their weight of free base.
# dog femoral arteries = assay: Contraction of isolated dog femoral arteries; settings: Canis lupus familiaris
# Procedure: (§5) The technique used is based on that described by Fowler et al. (J. Pharmacol. Exp. Ther., 229, 712-718, 1984). Male or female mongrel dogs of approximately 15-25 kg were used as organ sources. The animals are anesthetized with pentobarbital (30 mg/kg intravenously). The legs are incized and the blood vessels removed. They are placed in Krebs-Ringer liquid (118 mM NaCl; 25 mM NaHCO3; 10 mM Glucose; 4.7 mM KCl; 1.25 mM CaCl2; 1.19 mM MgSO4; 1.14 mM KH2 PO4) at room temperature and under a sparge of carbogen (95% O2, 5% CO2). These blood vessels are then carefully freed of their fat and then cut into rings 2 mm wide and mounted under a base tension of 4 g (femoral arteries) or 1 g (saphena veins) in tanks thermostated at 37° C. containing Krebs-Ringer liquid and constantly sparged with carbogen. A lower hook constitutes the fixed point, whereas the upper hook is connected to an isometric force sensor. The variations in tension are digitized, stored on disk and processed by an information technology system. After mounting, the organs are left to rest for 90 minutes, with rinses being carried out every 30 min. After readjustment of the base tension, a contraction is induced by a single dose of KCl (100 mM). After stabilization, washing and returning to the base line, a contraction is provoqued by a single dose of phenylephrine (submaximal concentration) in order to regulate the following contractions. After washing and returning to the baseline, an effect/concentration curve is produced by addition of cumulative doses of agonist (the space between the doses is a semi-log). This experiment makes it possible to calculate the 50% effective concentration (EC50) in the following way: the tension values are first of all converted to percentages relative to the maximum effect induced by 100 mM of KCl. This EC50 is determined by non-linear regression by the SIMPLEX method (M. S. Caceci, Byte, 340-362, 1984), calculated according to the mass action law model of L. Michaelis and M. L. Menten (Biochem. Zeitschrift, 49, 333-369, 1913).
# (§6) E=(Emax*C^n)(EC^n +C^n) with E=effect; Emax=maximum effect; C=concentration; EC=EC50; n=Hill number
# (§7) The products of the invention contract dog arteries and veins. The maximum for these contractions approaches that obtained with KCl.
# saphena veins = assay: Contraction of isolated dog saphena veins; settings: Canis lupus familiaris
# Procedure: as §5, §6, §7
# [4] = s.c., 30 minutes after injection, score of 1 or more
# [5] = s.c., 60 minutes after injection, xylazine 40 mg/kg i.p., score of 2 or less
# [6] = 30 minutes after xylazine 40 mg/kg i.p., distilled water pretreatment, N=10
compound,measurement,setting,value
"c1ccc2c(c1)OCC(C1=NCCN1)O2 (stereo not shown) [IDAZOXAN, idazoxan]",ED50,[1]; [4],> 10 mg/kg
same,induction of a loss of the reorienting reflex (in words),[1],inactiv
same,ED50,[2]; [5],0.24 mg/kg
"NC1=NC2(CCc3cccc(Cl)c3C2)CO1 (single isomer, unassigned) [Example 13, Spiro[(1-oxa-2-amino-3-azacyclopent-2-ene)-4:2'-(8'-chloro-1',2', 3',4'-tetrahydronaphthalene)]hydrochloride, βisomer]",ED50,[1]; [4],0.15 mg/kg
same,induction of a loss of the reorienting reflex (in words),[1],behave as agonists by inducing a loss of the reorienting reflex
same,ED50,[2]; [5],> 0.63 mg/kg
"NC1=NC2(CCc3cccc(Cl)c3C2)CO1 (stereo not shown) [Example 9, Spiro[(1-oxa-2-amino-3-azacyclopent-2-ene)-4:2'-(8'-chloro-1', 2',3',4'-tetrahydronaphthalene)]hydrochloride]",ED50,[1]; [4],0.17 mg/kg
same,induction of a loss of the reorienting reflex (in words),[1],behave as agonists by inducing a loss of the reorienting reflex
same,ED50,[2]; [5],> 0.63 mg/kg
same,Accumulation of L-DOPA,[3]; dose 0.01 mg/kg s.c.,51 ± 7 Control percentages
same,Accumulation of L-DOPA,[3]; dose 0.04 mg/kg s.c.,50 ± 7 Control percentages
same,Accumulation of L-DOPA,[3]; dose 0.16 mg/kg s.c.,44 ± 2 Control percentages
same,Accumulation of L-DOPA,[3]; dose 0.63 mg/kg s.c.,34 ± 2 Control percentages
"Brc1c(NC2=NCCN2)ccc2nccnc12 [UK 14,304, reference compound]",ED50,[1],0.24 mg/kg
same,induction of a loss of the reorienting reflex (in words),[1],behave as agonists by inducing a loss of the reorienting reflex
same,ED50,[2],> 10 mg/kg
same,Accumulation of L-DOPA,[3]; dose 0.01 mg/kg s.c.,98 ± 13 Control percentages
same,Accumulation of L-DOPA,[3]; dose 0.04 mg/kg s.c.,70 ± 2 Control percentages
same,Accumulation of L-DOPA,[3]; dose 0.16 mg/kg s.c.,40 ± 3 Control percentages
same,Accumulation of L-DOPA,[3]; dose 0.63 mg/kg s.c.,48 ± 7 Control percentages
"Cc1cccc(C)c1N=C1NCCCS1 [XYLAZINE, xylazine]",control rats that had lost the righting reflex (in words),[1]; [6],all the control rats (N=10) had lost the fighting reflex
same,"righting reflex score, mean±SD",[1]; [6],3±0
same,ED50,[1],6.1 mg/kg
same,induction of a loss of the reorienting reflex (in words),[1],behave as agonists by inducing a loss of the reorienting reflex
"Cc1ccc2c(c1C)CC1(CC2)COC(N)=N1 (stereo not shown) [Example 11, Spiro[(1-oxa-2-amino-3-azacyciopent-2-ene)-4:2'-(7-8'-dimethyl-1', 2',3',4'-tetrahydronaphthalene)]hydrochloride]",ED50,[1]; [4],1.14 mg/kg
same,induction of a loss of the reorienting reflex (in words),[1],behave as agonists by inducing a loss of the reorienting reflex
same,ED50,[2]; [5],> 2.5 mg/kg
"COc1cccc2c1CC1(CC2)CNC=N1 (stereo not shown) [Example 3, Spiro[(1,3-diazacyclopent-1-ene)-5:2'-(8'-methoxy-1',2',3', 4'-tetrahydronaphthalene)]fumarate]",EC50,"dog femoral arteries; dog femoral artery rings, cumulative doses",3000 nM
same,Emax,"dog femoral arteries; maximum contraction relative to 100 mM KCl, dog femoral artery, read-out: ARTERY Max",94%
same,EC50,"saphena veins; dog saphena vein rings, cumulative doses",400 nM
same,Emax,"saphena veins; maximum contraction relative to 100 mM KCl, dog saphena vein, read-out: VEIN Max",100%
